Calls of active or inactive are those of the source.
Assays:
[1] = biological target: Tyrosine-protein phosphatase non-receptor type 11 (Homo sapiens, UniProt Q06124); assay: SHP2 phosphatase inhibition, dose response, selectivity assay for STEP inhibitor project, biochemical (AID 602367); type: functional; settings: read-out: IC50_Mean
[2] = biological target: Tyrosine-protein phosphatase non-receptor type 5 (Homo sapiens, UniProt P54829); assay: STEP phosphatase inhibitors, confirmation, biochemical, fluorescence intensity, uHTS hits (AID 602372); type: functional; settings: read-out: IC50_Mean
Chain of Tyrosine-protein phosphatase non-receptor type 5 (P54829 whole entry): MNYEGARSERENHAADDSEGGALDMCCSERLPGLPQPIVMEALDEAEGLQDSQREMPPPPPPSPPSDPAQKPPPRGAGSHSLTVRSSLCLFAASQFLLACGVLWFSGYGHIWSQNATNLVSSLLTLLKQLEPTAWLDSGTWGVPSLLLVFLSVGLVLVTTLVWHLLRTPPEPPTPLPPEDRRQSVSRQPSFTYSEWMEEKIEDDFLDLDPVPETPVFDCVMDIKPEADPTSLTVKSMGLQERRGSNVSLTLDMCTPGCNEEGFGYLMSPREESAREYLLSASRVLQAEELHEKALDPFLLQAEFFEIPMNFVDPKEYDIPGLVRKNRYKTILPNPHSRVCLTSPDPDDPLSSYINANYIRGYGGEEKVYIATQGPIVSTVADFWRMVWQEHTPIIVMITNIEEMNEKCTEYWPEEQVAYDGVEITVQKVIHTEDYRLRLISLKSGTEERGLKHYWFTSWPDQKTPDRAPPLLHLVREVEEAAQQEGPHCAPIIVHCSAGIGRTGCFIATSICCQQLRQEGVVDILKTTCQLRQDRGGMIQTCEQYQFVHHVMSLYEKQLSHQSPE

[3] = biological target: Dual specificity protein phosphatase 3 (Homo sapiens, UniProt P51452); assay: VHR phosphatase inhibition, dose response, selectivity assay for STEP inhibitor project, biochemical (AID 602374); type: functional; settings: read-out: IC50_Mean
Chain of Dual specificity protein phosphatase 3 (P51452 whole entry): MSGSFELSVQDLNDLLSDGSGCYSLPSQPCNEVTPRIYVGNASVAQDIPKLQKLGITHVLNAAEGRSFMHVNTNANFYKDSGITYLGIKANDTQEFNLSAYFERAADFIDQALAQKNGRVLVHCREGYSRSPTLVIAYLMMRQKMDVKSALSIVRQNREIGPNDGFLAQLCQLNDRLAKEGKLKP

Aminopeptidase N = biological target: T1, Aminopeptidase N (Plasmodium falciparum FcB1/Columbia, UniProt O96935); assay: P. falciparum M1AAP inhibitors, biochemical, fluorogenic H-Leu-NHMec substrate, 1536-well (AID 1445); design: species or system Plasmodium falciparum 3D7, 3D7
T1 sequence (O96935 whole entry): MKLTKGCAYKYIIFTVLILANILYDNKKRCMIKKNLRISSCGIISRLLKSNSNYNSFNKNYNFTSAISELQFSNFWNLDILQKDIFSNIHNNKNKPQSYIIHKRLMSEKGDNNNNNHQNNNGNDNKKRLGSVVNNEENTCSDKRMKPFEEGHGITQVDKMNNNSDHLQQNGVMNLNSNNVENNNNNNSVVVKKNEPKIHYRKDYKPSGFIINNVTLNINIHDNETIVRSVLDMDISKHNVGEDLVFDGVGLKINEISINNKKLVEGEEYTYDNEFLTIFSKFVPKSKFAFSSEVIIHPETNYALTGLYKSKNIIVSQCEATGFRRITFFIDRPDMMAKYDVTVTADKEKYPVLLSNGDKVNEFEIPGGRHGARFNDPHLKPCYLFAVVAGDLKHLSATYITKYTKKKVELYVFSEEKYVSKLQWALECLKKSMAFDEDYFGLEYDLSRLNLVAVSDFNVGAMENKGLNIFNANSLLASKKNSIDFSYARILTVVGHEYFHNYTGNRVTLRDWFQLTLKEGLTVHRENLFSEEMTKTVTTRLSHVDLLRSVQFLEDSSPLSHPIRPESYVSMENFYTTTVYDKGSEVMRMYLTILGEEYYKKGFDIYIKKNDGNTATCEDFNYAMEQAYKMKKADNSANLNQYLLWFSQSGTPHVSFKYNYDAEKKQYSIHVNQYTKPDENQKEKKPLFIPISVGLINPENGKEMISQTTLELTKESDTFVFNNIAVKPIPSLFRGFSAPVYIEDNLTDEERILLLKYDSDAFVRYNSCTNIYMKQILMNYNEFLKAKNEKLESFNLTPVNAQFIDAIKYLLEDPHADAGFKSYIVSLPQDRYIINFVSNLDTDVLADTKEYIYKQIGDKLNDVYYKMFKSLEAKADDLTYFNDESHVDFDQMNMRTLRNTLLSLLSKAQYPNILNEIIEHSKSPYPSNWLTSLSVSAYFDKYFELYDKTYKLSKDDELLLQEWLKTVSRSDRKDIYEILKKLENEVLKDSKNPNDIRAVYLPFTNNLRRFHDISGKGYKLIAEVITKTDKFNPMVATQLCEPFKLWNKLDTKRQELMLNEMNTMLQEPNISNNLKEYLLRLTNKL

Vero = assay: host cell cytotoxicity of antiviral hits, dose response, cytotoxicity control for West Nile virus antiviral project, secondary assay (AID 1650); type: functional; settings: Chlorocebus sabaeus
[4] = biological target: SWI/SNF-related matrix-associated actin-dependent regulator of chromatin subfamily A member 2 (Homo sapiens, UniProt P51531); assay: Luminescence-based cell-based high throughput dose response assay to identify activators of the function of SWI/SNF related, matrix associated, actin dependent regulator of chromatin, subfamily a, member 2 (SMARCA2, BRM).; type: functional
[5] = Counterscreen for activators of the function of SWI/SNF related, matrix associated, actin dependent regulator of chromatin, subfamily a, member 2 (SMARCA2, BRM): Luminescence-based cell-based high throughput dose response assay to identify non-selective compounds using the VP16 reporter assay.; type: functional
[6] = biological target: T2, DNA repair protein RAD52 homolog (Homo sapiens, UniProt P43351); type: functional, biochemical
T2 sequence (P43351 whole entry): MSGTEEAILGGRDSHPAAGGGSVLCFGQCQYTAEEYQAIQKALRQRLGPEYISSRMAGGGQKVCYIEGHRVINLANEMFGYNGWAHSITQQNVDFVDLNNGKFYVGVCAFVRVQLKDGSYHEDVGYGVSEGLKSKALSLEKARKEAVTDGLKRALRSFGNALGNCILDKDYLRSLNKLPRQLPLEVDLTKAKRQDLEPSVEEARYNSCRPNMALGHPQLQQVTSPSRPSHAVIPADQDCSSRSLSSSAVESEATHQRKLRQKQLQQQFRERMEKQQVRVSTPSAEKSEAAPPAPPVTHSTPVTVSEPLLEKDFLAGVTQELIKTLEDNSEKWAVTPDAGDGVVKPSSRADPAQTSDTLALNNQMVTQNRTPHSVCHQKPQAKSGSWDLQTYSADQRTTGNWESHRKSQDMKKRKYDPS

Melanocortin receptor 4 = Melanocortin receptor 4 (Homo sapiens, UniProt P32245); type: functional, cell-based;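 also: Cell-based assay with luminescence read-out, confirmatory dose-response testing for agonist activity of biased ligands at MC4R; human U2OS cells with tagged receptor and beta-arrestin; potency of agonists that increase receptor coupling to beta-arrestin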
Chain of Melanocortin receptor 4 (P32245 whole entry): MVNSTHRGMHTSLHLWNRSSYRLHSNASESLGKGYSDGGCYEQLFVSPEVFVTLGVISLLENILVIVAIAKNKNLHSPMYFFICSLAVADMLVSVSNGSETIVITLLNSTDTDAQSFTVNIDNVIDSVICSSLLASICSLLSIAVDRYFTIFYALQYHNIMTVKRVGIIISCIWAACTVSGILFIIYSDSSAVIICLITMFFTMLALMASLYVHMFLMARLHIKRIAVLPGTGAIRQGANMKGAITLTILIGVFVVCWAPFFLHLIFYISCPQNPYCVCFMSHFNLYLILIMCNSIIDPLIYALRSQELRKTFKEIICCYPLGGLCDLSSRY

[7] = cytotoxicity in HEK-293T cells, dose response, cytotoxicity control for TCR NF-kB inhibitor project, luminescence, T-cell screen hits (AID 489026); type: functional, cell-based;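 also: cells exposed to compound about 14 hours before the viability readout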
Beta-galactosidase = Beta-galactosidase (Escherichia coli, UniProt Q8VNN2); assay: Dose response counterscreen for EBI2 assay utilizing the enzyme, b-galactosidase.; type: functional
Chain of Beta-galactosidase (Q8VNN2 whole entry): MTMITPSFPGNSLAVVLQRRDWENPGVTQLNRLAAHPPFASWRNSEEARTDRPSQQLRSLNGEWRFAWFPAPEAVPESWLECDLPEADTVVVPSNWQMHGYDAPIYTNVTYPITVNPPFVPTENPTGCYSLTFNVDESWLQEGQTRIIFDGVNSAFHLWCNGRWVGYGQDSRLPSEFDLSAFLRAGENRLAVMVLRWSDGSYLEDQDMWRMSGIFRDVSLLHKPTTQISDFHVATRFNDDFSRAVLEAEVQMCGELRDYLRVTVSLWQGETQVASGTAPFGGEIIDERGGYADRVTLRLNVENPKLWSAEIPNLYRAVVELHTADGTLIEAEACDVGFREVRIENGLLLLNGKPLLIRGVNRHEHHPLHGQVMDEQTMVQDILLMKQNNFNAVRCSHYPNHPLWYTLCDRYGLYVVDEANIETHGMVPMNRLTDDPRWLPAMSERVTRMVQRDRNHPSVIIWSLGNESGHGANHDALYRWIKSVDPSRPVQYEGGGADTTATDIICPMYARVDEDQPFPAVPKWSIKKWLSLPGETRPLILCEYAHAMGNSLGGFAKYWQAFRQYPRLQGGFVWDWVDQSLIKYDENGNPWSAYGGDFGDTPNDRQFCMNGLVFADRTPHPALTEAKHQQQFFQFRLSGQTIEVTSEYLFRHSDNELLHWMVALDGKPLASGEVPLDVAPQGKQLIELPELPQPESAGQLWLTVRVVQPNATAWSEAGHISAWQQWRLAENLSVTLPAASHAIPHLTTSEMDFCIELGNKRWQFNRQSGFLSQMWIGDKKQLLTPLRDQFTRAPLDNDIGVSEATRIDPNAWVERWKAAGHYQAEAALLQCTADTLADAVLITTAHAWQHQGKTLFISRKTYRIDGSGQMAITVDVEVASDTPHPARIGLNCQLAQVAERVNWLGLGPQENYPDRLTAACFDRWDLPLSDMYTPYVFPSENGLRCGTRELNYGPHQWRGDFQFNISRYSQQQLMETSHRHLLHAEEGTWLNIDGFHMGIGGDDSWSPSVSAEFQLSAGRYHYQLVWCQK

[8] = biological target: T3, Beta-2 adrenergic receptor (Homo sapiens, UniProt P07550); assay: Dose response for HTS for Beta-2AR agonists via FAP method from Powderset1.; type: functional
T3 sequence (P07550 whole entry): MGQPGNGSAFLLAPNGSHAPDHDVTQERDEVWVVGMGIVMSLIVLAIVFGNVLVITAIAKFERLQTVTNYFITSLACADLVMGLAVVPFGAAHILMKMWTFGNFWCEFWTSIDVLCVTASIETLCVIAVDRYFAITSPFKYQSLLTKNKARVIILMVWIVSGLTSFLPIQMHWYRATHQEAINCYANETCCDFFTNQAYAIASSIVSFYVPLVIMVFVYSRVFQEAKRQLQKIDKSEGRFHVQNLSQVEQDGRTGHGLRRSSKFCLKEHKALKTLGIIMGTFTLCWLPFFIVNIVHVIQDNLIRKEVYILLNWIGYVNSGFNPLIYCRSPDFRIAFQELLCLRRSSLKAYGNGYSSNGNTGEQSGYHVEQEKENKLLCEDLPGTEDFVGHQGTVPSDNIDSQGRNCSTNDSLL

[9] = biological target: T3, Beta-2 adrenergic receptor; assay: beta2AR agonists driving receptor internalization, dose response, cell-based, FAP fluorogen, flow cytometry, cherry pick 1 (AID 588763); type: functional
[10] = biological target: Arf-GAP with SH3 domain, ANK repeat and PH domain-containing protein 1 (Homo sapiens, UniProt Q9ULH1); type: functional;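 also: biochemical fluorescence polarization dose–response screen measuring inhibition of ASAP1; ASAP1 GAP domain stimulating GTP hydrolysis by truncated human ARF1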
Chain of Arf-GAP with SH3 domain, ANK repeat and PH domain-containing protein 1 (Q9ULH1 whole entry, the tested form may be a part): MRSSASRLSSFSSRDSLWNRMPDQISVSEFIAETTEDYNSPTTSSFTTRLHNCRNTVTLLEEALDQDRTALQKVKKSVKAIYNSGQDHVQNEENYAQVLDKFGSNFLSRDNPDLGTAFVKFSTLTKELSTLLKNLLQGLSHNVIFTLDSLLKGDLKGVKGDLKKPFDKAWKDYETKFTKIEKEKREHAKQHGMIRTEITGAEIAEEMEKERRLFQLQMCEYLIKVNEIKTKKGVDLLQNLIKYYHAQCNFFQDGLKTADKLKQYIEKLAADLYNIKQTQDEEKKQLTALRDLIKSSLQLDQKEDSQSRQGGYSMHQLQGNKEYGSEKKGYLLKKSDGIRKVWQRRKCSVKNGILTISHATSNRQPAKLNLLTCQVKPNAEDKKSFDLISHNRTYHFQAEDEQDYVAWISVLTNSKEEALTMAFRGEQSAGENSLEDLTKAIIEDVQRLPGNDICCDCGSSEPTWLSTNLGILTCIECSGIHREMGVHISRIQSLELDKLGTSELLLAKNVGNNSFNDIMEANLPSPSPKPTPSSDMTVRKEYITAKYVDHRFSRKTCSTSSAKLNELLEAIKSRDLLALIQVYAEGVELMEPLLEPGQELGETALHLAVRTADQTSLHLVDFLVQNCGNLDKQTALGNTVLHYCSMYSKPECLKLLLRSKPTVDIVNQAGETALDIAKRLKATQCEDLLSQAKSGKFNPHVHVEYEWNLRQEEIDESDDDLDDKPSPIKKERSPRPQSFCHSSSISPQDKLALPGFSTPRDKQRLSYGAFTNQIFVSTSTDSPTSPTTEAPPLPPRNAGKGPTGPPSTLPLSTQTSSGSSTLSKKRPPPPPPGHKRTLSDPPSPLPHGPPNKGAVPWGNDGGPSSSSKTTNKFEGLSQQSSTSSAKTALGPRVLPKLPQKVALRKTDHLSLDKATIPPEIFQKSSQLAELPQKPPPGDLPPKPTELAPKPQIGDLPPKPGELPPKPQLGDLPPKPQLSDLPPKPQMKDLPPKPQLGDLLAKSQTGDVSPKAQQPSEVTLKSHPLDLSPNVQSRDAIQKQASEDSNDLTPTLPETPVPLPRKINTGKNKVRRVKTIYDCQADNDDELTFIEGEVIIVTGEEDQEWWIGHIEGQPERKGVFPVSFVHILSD

[11] = biological target: T4, Sentrin-specific protease 8 (Homo sapiens, UniProt Q96LD8); type: functional
T4 sequence (Q96LD8 whole entry): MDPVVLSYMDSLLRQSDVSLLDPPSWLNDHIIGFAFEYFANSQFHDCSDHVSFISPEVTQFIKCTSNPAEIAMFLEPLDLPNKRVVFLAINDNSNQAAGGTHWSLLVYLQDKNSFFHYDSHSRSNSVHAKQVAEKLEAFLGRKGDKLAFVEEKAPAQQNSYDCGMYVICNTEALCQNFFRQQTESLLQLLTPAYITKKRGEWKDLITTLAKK

[12] = biological target: T4, Sentrin-specific protease 8; type: functional; remark: listed apart in the source
Caspase-6 = biological target: T5, Caspase-6 (Homo sapiens, UniProt P55212); assay: human caspase-6 inhibitors, dose response, biochemical, VEID-R110 fluorescence, cherry-pick (AID 720632)
T5 sequence (P55212 whole entry): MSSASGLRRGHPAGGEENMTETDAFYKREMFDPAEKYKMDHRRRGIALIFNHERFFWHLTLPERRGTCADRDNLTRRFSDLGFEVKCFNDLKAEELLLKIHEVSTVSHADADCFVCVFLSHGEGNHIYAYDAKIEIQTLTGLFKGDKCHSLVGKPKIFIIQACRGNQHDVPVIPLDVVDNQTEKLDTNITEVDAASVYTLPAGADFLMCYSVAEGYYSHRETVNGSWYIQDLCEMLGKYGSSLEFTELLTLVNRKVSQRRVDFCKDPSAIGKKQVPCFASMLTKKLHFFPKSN

cells = type: functional, cell-based
[13] = biological target: Nuclear receptor subfamily 0 group B member 1 (Homo sapiens, UniProt P51843); type: functional, cell-based;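 also: HEK293T cells transfected with SF-1 and DAX-1 plus StAR promoter luciferase reporter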
Chain of Nuclear receptor subfamily 0 group B member 1 (P51843 whole entry): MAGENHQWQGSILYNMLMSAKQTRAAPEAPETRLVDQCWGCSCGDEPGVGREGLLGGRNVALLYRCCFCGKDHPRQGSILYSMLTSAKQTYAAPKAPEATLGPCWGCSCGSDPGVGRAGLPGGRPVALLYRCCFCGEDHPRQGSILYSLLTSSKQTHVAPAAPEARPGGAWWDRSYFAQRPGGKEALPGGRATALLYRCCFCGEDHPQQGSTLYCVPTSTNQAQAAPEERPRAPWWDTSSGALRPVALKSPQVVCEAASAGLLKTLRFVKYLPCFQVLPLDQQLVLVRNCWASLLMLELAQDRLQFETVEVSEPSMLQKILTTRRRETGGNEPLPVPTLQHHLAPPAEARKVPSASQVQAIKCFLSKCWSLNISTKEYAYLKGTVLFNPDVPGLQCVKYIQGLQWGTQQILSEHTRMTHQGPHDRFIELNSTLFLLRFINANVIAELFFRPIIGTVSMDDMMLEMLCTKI

Chain of Tyrosine-protein phosphatase non-receptor type 11 (Q06124 whole entry): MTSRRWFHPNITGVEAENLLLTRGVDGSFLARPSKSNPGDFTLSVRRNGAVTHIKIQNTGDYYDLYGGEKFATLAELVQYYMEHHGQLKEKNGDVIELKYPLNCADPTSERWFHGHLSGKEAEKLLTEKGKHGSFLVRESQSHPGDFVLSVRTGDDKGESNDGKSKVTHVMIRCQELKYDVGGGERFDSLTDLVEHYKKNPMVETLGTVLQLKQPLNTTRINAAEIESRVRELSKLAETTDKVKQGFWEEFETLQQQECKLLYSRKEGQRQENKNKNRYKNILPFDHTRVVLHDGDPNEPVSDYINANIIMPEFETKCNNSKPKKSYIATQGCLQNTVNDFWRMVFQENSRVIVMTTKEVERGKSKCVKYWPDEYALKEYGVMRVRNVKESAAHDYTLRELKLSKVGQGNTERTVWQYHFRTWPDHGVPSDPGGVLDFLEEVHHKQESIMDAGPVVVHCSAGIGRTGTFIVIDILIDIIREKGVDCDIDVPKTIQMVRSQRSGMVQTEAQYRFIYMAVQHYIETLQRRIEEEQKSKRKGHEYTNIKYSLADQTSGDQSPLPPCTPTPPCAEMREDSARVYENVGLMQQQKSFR

Clc1ccc(Cl)c(-c2nc(-c3ccncc3)no2)c1
IC50 [1]: 6.55 µM (active)
IC50 [2]: > 80 µM (inactive)
IC50 [3]: 25.4 µM (inactive)

O=C1c2ccccc2C(=O)c2c(NCCCN(CCO)CCO)cccc21
IC50 (Aminopeptidase N): 77.7 µM (active)
CC50 (Vero): 13.9 µM (active)
EC50 [4]: > 10.1 µM (inactive)
EC50 [5]: > 91.2 µM (inactive)
AC50 [6]: 0.977 µM (active)

COc1ccc(NC(=S)N(CCCN2CCC(C)CC2)Cc2cccs2)cc1Cl
IC50 [1]: 6.76 µM (active)
IC50 [2]: 55.6 µM (inactive)
IC50 [3]: 4.18 µM (active)

COc1ccc2nc(NC(=O)CSc3nc4cccnc4n3C)sc2c1
EC50 (Melanocortin receptor 4): > 89.2 µM (inactive)

Cc1cccc(N2CCN(C(=O)c3ccc4[nH]c(C)c(C)c4c3)CC2)c1C
IC50 [7]: > 80 µM (inactive)
IC50 (Beta-galactosidase): > 80 µM (inactive)

Cc1ccc(SCC(=O)Nc2ccc(-c3nc4ccccc4[nH]3)cc2)cc1
EC50 [8]: 0.00682 µM (active)
EC50 [9]: 0.0116 µM (active)

COc1cccc(-n2nnc3c(=O)n(Cc4ccc(Br)cc4)cnc32)c1
IC50 [10]: 24.7 µM (inactive)

COC(=O)N/N=C1/C/C(=N\NC(=O)OC)c2ccccc21
IC50 [11]: 0.557 µM (active)
IC50 [12]: 0.365 µM (active)
AC50 (Caspase-6): 4.22 µM (active)

Cc1ccc2nc(NC(=O)COC(=O)c3cccnc3)sc2c1
IC50 (cells): > 67.5 µM (inactive)
IC50 [13]: > 67.5 µM (inactive)
